Common to all, as to format: biochemical
The target in test [1] is T1, Tth DNA polymerase (Thermus thermophilus, UniProt P52028).
T1 construct: purchased APBiotech
The test can be described thus: Thermostable DNA polymerase primer extension, Tth. Particulars: DNA template, 45° C. for 20–40 minutes; for primer extended by at least one base within assay time (grade): TTP replaced entirely by test compound. Set-up: key to result of incorporation (termination / further chain extension): T: Incorporation results in termination; E: Incorporation permits further chain extension; T/E: Predominant product is primer extended by one base, but evidence of some further extension also observed. On the procedure: (§1) DNA polymerase assays were performed using Sequence 1 as primer and Sequence 2 as template. • Sequence 1 5′[Cy3]TAACTCATTAACAGGATC 3′ • Sequence 2 5′AT TCGCGGTATTCTGGTATGAAGCTTTTAGATCCTGTTAATGAGTTA GTA3′
(§2) The template (Sequence 2) was designed such that the base (underlined) immediately adjacent to the 3′ end of the hybridised primer is complementary to the nucleotide test compound. Nucleotide test compounds were compounds (6) (4′-C-(glycylaminomethyl)thymidine triphosphate), (8) (4′-C-(N-trifluoroacetyaminomethyl)thymidine triphosphate) and (9) (4′-C-(aminomethyl)thymidine triphosphate) as described above.
(§3) Primer extension reactions were performed using the above primers in the presence of 40 to 80 μM of nucleotide triphosphates. Positive control reactions contained all four native nucleotide triphosphates. For the other reactions the TTP was replaced with either a 2:1 ratio of […] for the terminator control, or entirely by the test compound The enzymes were used at a final concentration of 0.175 units/μl and a magnesium ion concentration of 2.5 mM in buffers supplied by the manufacturer. The primer and template concentrations were 0.5 pmol/μl and 2 pmol/μl respectively.
(§4) Extension reactions with thermophilic enzymes were performed by initially denaturing the fully assembled reactions at 70° C. for 5 min. followed by 45° C. for 20–40 minutes. The following enzymes were used: Taq DNA polymerase (Taq); Thermosequenase (TS); Thermosequenase II (TSII); Thermosequenase E (TSE), Tfl DNA polymerase (Tfl); Tth DNA polymerase (Tth), deltaTts DNA polymerase (deltaTts), deltaTts D DNA polymerase (dettaTTSD) (all from APBiotech); Pfu DNA polymerase (Pfu) (Stratagene Ltd); Vent™ DNA polymerase (Vent) (New England Biolabs).
(§5) The reactions were stopped by adding a 0.5 volume aliquot of 80% formamide containing 0.1% (w/v) bromophenol blue and 0.1% (w/v) cresol blue. The reaction products were separated by denaturing gel electrophoresis at a constant power of 45 W on 16% polyacrylamide gels containing 50% urea.
(§6) Gels were scanned for Cy3 fluorescence on a Molecular Dynamics Fluorimager and the data analysed using Molecular Dynamics ImageQuant 5 software.
(§7) The incorporation of a test nucleotide triphosphate results in the appearance on a polyacrylamide gel of a single band corresponding to a single base extension product. If, however, the enzyme adds additional bases then further bands would be observed that corresponded to either the full-length product or positions of other complementary bases in the template.

The subject of test [2] is deltaTts D DNA polymerase. The experiment in a line: Thermostable DNA polymerase primer extension, delta TTSD. Set-up: key to result of incorporation (termination / further chain extension): T: Incorporation results in termination; E: Incorporation permits further chain extension; T/E: Predominant product is primer extended by one base, but evidence of some further extension also observed. To be noted: DNA template, 45° C. for 20–40 minutes; for primer extended by at least one base within assay time (grade): TTP replaced entirely by test compound. How it is done: as §1, §2, §3, §4, §5, §6, §7

Test [3] has as its target T2, phi-29 DNA polymerase (Bacillus phage phi29, UniProt P03680).
T2 construct: purchased AP Biotech
The experiment in a line: Mesophilic DNA polymerase primer extension, phi-29. Also on record: key to result of incorporation (termination / further chain extension): T: Incorporation results in termination; E: Incorporation permits further chain extension; T/E: Predominant product is primer extended by one base, but evidence of some further extension also observed. Particulars: DNA template, 37° C. for 20–40 minutes; for primer extended by at least one base within assay time (grade): TTP replaced entirely by test compound. On the procedure: as §1, §2, §3
(§8) Extension reactions preformed with mesophilic polymerases were carried out by mixing all the components of the reaction except the enzyme and heating to 70° C. for 5 min. After the reactions had cooled to room temperature 0.175 units of the enzyme were added and the reactions heated to 37° C. for 20–40 minutes. The following enzymes were used: T7 DNA polymerase (T7); Sequenase 2™ (Seq); Klenow fragment of DNA polymerase 1 (Klen); phi-29 DNA polymerase (Phi-29); T4 DNA polymerase (T4) (all from AP Biotech) and Bst DNA polymerase (Bst) (Cambio Ltd).
as §5, §6, §7

Test [4] concerns Thermosequenase. The test can be described thus: Thermostable polymerase under reverse transcription conditions, TS I. Also on record: key to result of incorporation (termination / further chain extension): T: Incorporation results in termination; E: Incorporation permits further chain extension; T/E: Predominant product is primer extended by one base, but evidence of some further extension also observed. To be noted: RNA template, 2.5 mM Manganese ions; for primer extended by at least one base within assay time (grade): Tth reaction buffer. On the procedure: as §1, §2, §3, §4
(§9) Reverse transcriptase reactions were performed essentially as described above for thermophilic and mesophilic enzymes. The template for these reactions was the RNA equivalent of sequence 2. All the thermophilic enzymes were assayed in Tth reaction buffer (Cambio Ltd, Cambridge UK) containing 2.5 mM Manganese ions. The following enzymes were used: Thermosequenase (TS1); Thermosequenase II (TSII); delta Tts DNA polymerase (deltaTts); delta Tts D DNA polymerase (deltaTtsD) (all from APBiotech); Retrotherm reverse transcriptase (Retroth) (Cambio Ltd); Tth DNA polymerase (Tth) (Cambio Ltd.).
as §5, §6, §7

Test [5] concerns the target T1, Tth DNA polymerase. The test can be described thus: Thermostable polymerase under reverse transcription conditions, Tth. Also on record: key to result of incorporation (termination / further chain extension): T: Incorporation results in termination; E: Incorporation permits further chain extension; T/E: Predominant product is primer extended by one base, but evidence of some further extension also observed; key to primer extended by at least one base within assay time (grade): −: No extension within assay time; +/−: up to 25% of primer extended by at least one base within assay time; +: up to 50% of primer extended by at least one base within assay time; ++: up to 75% of primer extended by at least one base within assay time; +++: essentially all primer extended by at least one base within assay time. Particulars: RNA template, 2.5 mM Manganese ions; for primer extended by at least one base within assay time (grade): Tth reaction buffer. On the procedure:
as §1, §2, §3, §4, §9, §5, §6, §7

In test [6] the test system is delta Tts D DNA polymerase. The experiment in a line: Thermostable polymerase under reverse transcription conditions, delta TtsD. Also on record: key to result of incorporation (termination / further chain extension): T: Incorporation results in termination; E: Incorporation permits further chain extension; T/E: Predominant product is primer extended by one base, but evidence of some further extension also observed; key to primer extended by at least one base within assay time (grade): −: No extension within assay time; +/−: up to 25% of primer extended by at least one base within assay time; +: up to 50% of primer extended by at least one base within assay time; ++: up to 75% of primer extended by at least one base within assay time; +++: essentially all primer extended by at least one base within assay time. To be noted: RNA template, 2.5 mM Manganese ions; for primer extended by at least one base within assay time (grade): Tth reaction buffer. On the procedure:
as §1, §2, §3, §4, §9, §5, §6, §7

Test [7] concerns a range of polymerases. The test can be described thus: DNA polymerase assays (summary). To be noted: for further extension after incorporation: reverse transcriptase conditions; for result of incorporation / substrate for polymerases: summary of polymerase assays. On the procedure: as §1, §2, §3, §4, §8, §9
Mesophilic reverse transcriptases (AMV RT; MuLV RT; SAV RT and HIV RT all from APBiotech) were assayed in their respective buffers with a final enzyme concentration of 4 units/μl.
as §5, §6, §7

Data on three molecules can be found in patent US7078499B2, “Nucleotide analogues comprising a reporter moiety and a polymerase enzyme blocking moiety” (GE Healthcare UK Limited, priority 2000, dated 2006).

T2 sequence (P03680 whole entry): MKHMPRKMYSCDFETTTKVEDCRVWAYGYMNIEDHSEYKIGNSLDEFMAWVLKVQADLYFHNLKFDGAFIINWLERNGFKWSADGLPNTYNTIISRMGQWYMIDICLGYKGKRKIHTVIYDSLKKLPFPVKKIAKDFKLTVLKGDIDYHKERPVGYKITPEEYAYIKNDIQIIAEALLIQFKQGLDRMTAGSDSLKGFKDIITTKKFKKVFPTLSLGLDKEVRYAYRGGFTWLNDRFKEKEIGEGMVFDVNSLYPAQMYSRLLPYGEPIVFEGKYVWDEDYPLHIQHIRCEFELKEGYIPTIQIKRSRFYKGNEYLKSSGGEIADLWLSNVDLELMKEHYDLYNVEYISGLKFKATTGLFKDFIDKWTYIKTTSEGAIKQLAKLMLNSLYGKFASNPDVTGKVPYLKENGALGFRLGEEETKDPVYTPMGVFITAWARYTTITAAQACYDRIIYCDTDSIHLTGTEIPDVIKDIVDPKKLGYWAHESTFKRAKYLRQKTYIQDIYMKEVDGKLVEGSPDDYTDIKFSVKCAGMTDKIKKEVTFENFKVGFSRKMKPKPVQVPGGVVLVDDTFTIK
T1 sequence (P52028 whole entry): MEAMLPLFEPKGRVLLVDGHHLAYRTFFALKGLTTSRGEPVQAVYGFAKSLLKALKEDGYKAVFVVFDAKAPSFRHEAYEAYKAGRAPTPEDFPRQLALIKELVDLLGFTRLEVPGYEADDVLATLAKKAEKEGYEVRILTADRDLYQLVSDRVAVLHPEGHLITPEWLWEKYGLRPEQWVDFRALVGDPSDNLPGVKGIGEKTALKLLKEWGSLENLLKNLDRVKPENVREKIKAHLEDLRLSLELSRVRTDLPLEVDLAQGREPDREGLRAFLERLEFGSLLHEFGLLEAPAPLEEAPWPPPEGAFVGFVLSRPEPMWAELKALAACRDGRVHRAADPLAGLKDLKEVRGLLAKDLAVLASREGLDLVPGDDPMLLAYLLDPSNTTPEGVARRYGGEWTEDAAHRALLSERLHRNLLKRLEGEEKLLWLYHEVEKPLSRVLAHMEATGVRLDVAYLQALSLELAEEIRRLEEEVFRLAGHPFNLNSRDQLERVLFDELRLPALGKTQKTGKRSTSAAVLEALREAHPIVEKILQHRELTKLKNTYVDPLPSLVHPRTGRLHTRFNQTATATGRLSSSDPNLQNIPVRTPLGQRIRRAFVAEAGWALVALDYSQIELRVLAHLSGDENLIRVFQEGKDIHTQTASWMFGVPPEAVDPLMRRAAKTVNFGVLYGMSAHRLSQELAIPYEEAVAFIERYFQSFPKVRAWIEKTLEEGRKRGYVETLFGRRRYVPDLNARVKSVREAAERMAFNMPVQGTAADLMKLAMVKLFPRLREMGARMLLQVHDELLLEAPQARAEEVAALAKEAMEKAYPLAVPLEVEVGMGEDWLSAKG

“4′-C-(Aminomethyl)thymidine triphosphate [compound (9)]”: the “result of incorporation (termination / further chain extension)” value in test [1] was “T”; in test [2], “T/E”; in test [3], “T”; in test [4] it was “T/E”; in test [5] it was “T”; in test [6] it was “E”. For the same molecule, the “primer extended by at least one base within assay time (grade)” value (“primer extended” for short) in test [1] is reported as “++ (up to 75% of primer extended by at least one base within assay time)”; in test [2], “++ (up to 75% of primer extended by at least one base within assay time)”; in test [3] it was “+/− (up to 25% of primer extended by at least one base within assay time)”; in test [4] it was “+ (up to 50% of primer extended by at least one base within assay time)”; in test [5] it was “+++”; in test [6] it was “+++”. Moreover, the “further extension after incorporation” value in test [7] is given as “some extension was observed”. The result of incorporation in test [7] is “termination”. Further, the substrate for polymerases result in test [7] is reported as “effective substrates”.
As to “4′-C-(Glycylaminomethyl)thymidine triphosphate [compound (6)]”, the “result of incorporation (termination / further chain extension)” value in test [1] is recorded as “T”; in test [2], “T”; in test [3], “T”; in test [4] it was “T/E”; in test [5] it was “T”; in test [6], “E”. Besides, the “primer extended” value in test [1] is reported as “+ (up to 50% of primer extended by at least one base within assay time)”; in test [2], “++ (up to 75% of primer extended by at least one base within assay time)”; in test [3], “+/− (up to 25% of primer extended by at least one base within assay time)”; in test [4] it was “+ (up to 50% of primer extended by at least one base within assay time)”; in test [5] it was “+++”; in test [6], “+++”. Further, the “further extension after incorporation” value in test [7] was “some extension was observed”. For the same molecule, in test [7], the result of incorporation is recorded as “termination”. The substrate for polymerases entry in test [7] was “effective substrates”.
For `Cc1cn([C@H]2C[C@H](O)[C@@](CNC(=O)C(F)(F)F)(COP(=O)(O)OP(=O)(O)OP(=O)(O)O)O2)c(=O)[nH]c1=O` [compound (8), 4′-C-(N-trifluoroacetylaminomethyl)thymidine triphosphate], the “result of incorporation (termination / further chain extension)” value was “T” in test [1]; “T/E” in test [2]; “T” in test [3]; “T/E” in test [4]; “T” in test [5]; “E” in test [6]. The “primer extended” value is given as “++ (up to 75% of primer extended by at least one base within assay time)” in test [1]; “++ (up to 75% of primer extended by at least one base within assay time)” in test [2]; “+/− (up to 25% of primer extended by at least one base within assay time)” in test [3]; “+ (up to 50% of primer extended by at least one base within assay time)” in test [4]; “+++” in test [5]; “+++” in test [6]. Moreover, the “further extension after incorporation” value in test [7] is “some extension was observed”. In test [7], the result of incorporation is “termination”. In addition, the substrate for polymerases result in test [7] is reported as “effective substrates”.
